Source: US10238688B2, “Combination therapies for bladder cancer” (GENEDIA BIOTECH CO. LTD., priority 2015, dated 2019)

Legend:
Assay type in all cases: in vivo, BALB/C male nude mice
[1] = system: 5637 derived tumor xenografts; test: 5637 tumor xenograft growth in nude mice
Procedure: (§1) Each experiment was performed three times. All animals were adult BALB/C male nude mice of 8-12 weeks of age and experiments were performed in accordance with the National Institutes of Health Guide for the Care and Use of Laboratory Animals and approved by the animal research committee of Harbin Medical University, China.
(§2) Cells (1×10^6-7th/100 μL) embedded in BD Matrigel™ Matrix were subcutaneously injected at three sites in the back of each mouse (3-4 mice per treatment). On day 7-12th following cell injection, the animals were treated with the different drugs by an intraperitoneal injection, which was repeated every three days. Tumor volumes were monitored/calculated using the equation V=W^2L×0.5 (where W and L represent the […] tumor diameters (mm)) and then plotted. The tumor mass mice were weighed, fixed/sliced for immunohistochemistry after sacrificing the animals.
(§3) Two sets of tumor xenograft/nude mice studies were carried out. The in vivo study involves […]. Both mean±S.D of tumor volume and mass were calculated. […]
(§4) This example then compared the in vivo anticancer activity of EH/Ci/Mi regimen with its mono- and bi-drug counterparts on the 5637, UM-UC-3, or Biu87 cells derived tumor xenografts in nude mice. […] The tumor volumes were measured once every three days and were normalized by the volume on day 7. […]

[2] = system: Biu87 derived tumor xenografts; test: Biu87 tumor xenograft growth in nude mice
Procedure: as §1, §2, §3, §4

[3] = system: Ki67-positive cells in tumor xenografts; test: Ki67 immunohistochemistry of tumor xenografts; details: relative to PBS controls; day 28
Procedure: Immunostaining was performed on 5 μm slices of formalin fixed paraffin-embedded tumor xenografts using antibodies from Gene Tech Company (Shanghai, China) against both Ki67 and CD34. Pictures were taken by LEICA DM 4000B microscope and the relative level of each protein was calculated using LEICA software. The relative staining per antibody (in percentage) in the […] tumors was calculated and plotted.
This example then compared the in vivo anticancer activity of EH/Ci/Mi regimen with its mono- and bi-drug counterparts on the 5637, UM-UC-3, or Biu87 cells derived tumor xenografts in nude mice. Since there is no established conversion rule for the drug dose in cell culture to in nude mice, this example used 75 μg per mouse for the mono-drug treatments and 25 μg per drug per mouse for both bi-drug and tri-drug combinations, based on the maximum tolerated drug dose recommended for these drugs. To minimize the inter-mouse bias's effect on tumor growth, three different BCa cell line-derived tumor xenografts were individually established subcutaneously on the back of the twelve mice (FIG. 5A). […] The tumor volumes were measured once every three days and were normalized by the volume on day 7. […]

[4] = system: UM-UC-3 derived tumor xenografts; test: UM-UC-3 tumor xenograft growth in nude mice
Procedure: as §1, §2, §3, §4

N.N.[Cl][Pt][Cl] [Ci, (SP-4-2)-diamminedichloroplatinum(II)]
relative tumor weight ([1]; 5637 derived tumor, day 28, tri-drug group taken as 1): 1.79 | relative tumor volume ([1]; 5637 xenograft, normalized by volume on day 7, i.p. at three-day interval, 75 μg per mouse mono-drug, 25 μg per drug per mouse combinations): 6.2 | relative tumor weight ([2]; Biu87 derived tumor, day 28, tri-drug group taken as 1): 1.48 | increase in tumor volume on day 28th (relative tumor volume) ([2]; Biu87 xenograft, normalized by volume on day 7, i.p. at three-day interval, 75 μg per mouse mono-drug, 25 μg per drug per mouse combinations): 4.95 | percentage of Ki67-positive cells in tumor xenografts [3]: reduced | relative tumor weight ([4]; UM-UC-3 derived tumor, day 28, tri-drug group taken as 1): 3.37 | increase in tumor volume on day 28th (relative tumor volume) ([4]; UM-UC-3 xenograft, normalized by volume on day 7, i.p. at three-day interval, 75 μg per mouse mono-drug, 25 μg per drug per mouse combinations): 10.58
